The values that follow come from patent US9334263B2, “Compositions useful for treating disorders related to kit” (BLUEPRINT MEDICINES CORPORATION, priority 2013, dated 2016).

Structures are written as SMILES. A value given as a limit tells only on which side of the number the result lay.

T3 sequence (P10721 26-976 V560G/D816V): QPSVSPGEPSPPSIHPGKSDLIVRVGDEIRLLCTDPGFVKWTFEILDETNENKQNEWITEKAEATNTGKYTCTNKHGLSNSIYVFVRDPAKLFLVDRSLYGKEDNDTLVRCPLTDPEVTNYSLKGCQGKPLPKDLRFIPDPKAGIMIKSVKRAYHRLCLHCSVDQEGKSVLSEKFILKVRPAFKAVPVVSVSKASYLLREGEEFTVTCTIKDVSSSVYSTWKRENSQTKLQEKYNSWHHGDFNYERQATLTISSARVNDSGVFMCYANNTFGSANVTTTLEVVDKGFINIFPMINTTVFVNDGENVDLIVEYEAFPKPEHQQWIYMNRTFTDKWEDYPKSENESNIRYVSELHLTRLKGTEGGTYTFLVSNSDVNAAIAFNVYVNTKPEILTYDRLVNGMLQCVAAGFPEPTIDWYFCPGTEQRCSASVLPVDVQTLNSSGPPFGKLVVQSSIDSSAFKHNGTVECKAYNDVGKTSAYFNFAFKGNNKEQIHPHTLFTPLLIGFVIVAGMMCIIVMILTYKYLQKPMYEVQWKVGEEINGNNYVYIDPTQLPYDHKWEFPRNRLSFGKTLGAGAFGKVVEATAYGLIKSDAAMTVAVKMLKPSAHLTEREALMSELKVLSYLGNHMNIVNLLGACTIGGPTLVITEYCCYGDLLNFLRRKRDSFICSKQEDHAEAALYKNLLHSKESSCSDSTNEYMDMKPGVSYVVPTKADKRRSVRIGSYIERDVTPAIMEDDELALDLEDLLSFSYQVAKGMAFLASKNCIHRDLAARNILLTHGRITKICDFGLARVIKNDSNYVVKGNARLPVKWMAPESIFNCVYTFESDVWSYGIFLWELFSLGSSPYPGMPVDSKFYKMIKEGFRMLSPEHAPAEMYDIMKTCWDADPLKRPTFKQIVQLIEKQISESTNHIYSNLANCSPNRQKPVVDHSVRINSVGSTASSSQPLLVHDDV

In the first assay the target is T1, wild type Kit (Homo sapiens, UniProt P10721).
T1 construct: purchased Carna Bioscience 08-156
T1 sequence (P10721 26-976): as the sequence (P10721 26-976 V560G/D816V) above, with G535V, V791D counted along it
Kind of assay: Kit wild type assay at Km (Caliper electrophoretic mobility shift). It counts as biochemical. The settings on record: 400 uM ATP, 25 C, 90 minutes; read-out: WT KIT. Here is the method: In order to assess the activity of chemical compounds against the relevant kinase of interest, the Caliper LifeSciences electrophoretic mobility shift technology platform is used. Fluorescently labeled substrate peptide is incubated in the presence of kinase and ATP so that a […] proportion of the peptide is phosphorylated. At the end of the reaction, the mix of phosphorylated (product) and non-phosphorylated (substrate) peptides are passed through the microfluidic system of the Caliper EZ Reader 2, under an applied potential difference. The presence of the phosphate group on the product peptide provides a difference in mass and charge between those of the substrate peptide, resulting in a separation of the substrate and product pools in the sample. As the pools pass a LEDS within the instrument, these pools are detected and resolved as separate peaks. The ratio between these peaks therefore reflects the activity of the chemical matter at that concentration in that well, under those conditions.
The reaction was stopped by the addition of 70 ul of Stop buffer (100 mM HEPES pH 7.5, 0.015% Brij 35, 35 mM EDTA and 0.2% of Coating Reagent 3 (Caliper Lifesciences)). The plate was then read on a Caliper EZReader 2 (protocol settings: −1.9 psi, upstream voltage −700, downstream voltage −3000, post sample sip 35 s).
Regarding `c1ccc(Nc2cnc(N3CCN(c4ncnc(Nc5ccccc5)n4)CC3)nc2)cc1` [Compound 9], the IC50 lay in the range of 100 to 1000 nM.
On the same count and under the same terms, the same measure for `c1ccc(Cc2cnc(N3CCN(c4ncnc(NCCCN5CCOCC5)n4)CC3)nc2)cc1` [Compound 37]: above 1000 nM; for `CS(=O)(=O)c1ccc(Nc2ncnc(N3CCN(C(=O)Nc4ccc(C#N)cc4)CC3)n2)cc1` [Compound 40]: 11 to 100 nM; for `COc1cc(Nc2ncnc(N3CCN(c4ncc(Cc5ccccc5)cn4)CC3)n2)cc(OC)c1` [Compound 54]: 100 to 1000 nM.

The target of a further assay is T2, D816V Kit (Homo sapiens, UniProt P10721, D816V).
T2 construct: purchased Carna Bioscience 08-156
T2 sequence (P10721 26-976 D816V): as the sequence (P10721 26-976 V560G/D816V) above, with G535V counted along it
Kind of assay: Kit D816V assay at Km (Caliper electrophoretic mobility shift). In kind it is biochemical. The settings on record: 15 uM ATP, 25 C, 90 minutes. The method, boiled down: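 Read-out is the ratio of phosphorylated to unphosphorylated fluorescent peptide, resolved by mobility shift on a Caliper EZ Reader 2.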
As to `c1ccc(Nc2cnc(N3CCN(c4ncnc(Nc5ccccc5)n4)CC3)nc2)cc1` [Compound 9], the IC50 was in the range of 10 to 100 nM.
`c1ccc(Cc2cnc(N3CCN(c4ncnc(NCCCN5CCOCC5)n4)CC3)nc2)cc1` [Compound 37]: the IC50 is above 100 nM.
Still for that read-out and setting: as for `CS(=O)(=O)c1ccc(Nc2ncnc(N3CCN(C(=O)Nc4ccc(C#N)cc4)CC3)n2)cc1` [Compound 40], the figure is 10 to 100 nM.
Same read-out and setting: as for `COc1cc(Nc2ncnc(N3CCN(c4ncc(Cc5ccccc5)cn4)CC3)n2)cc(OC)c1` [Compound 54], the figure is 1.01 to 10 nM; as for `C[C@H](c1ccccc1)c1cnc(N2CCN(c3ncnc(Nc4ccc(N5CCC[C@@H](O)C5)cc4)n3)CC2)nc1` [Compound 223], 1.01 to 10 nM.
The same measure, in the same setting: as for `C[C@@H](c1ccccc1)c1cnc(N2CCN(c3ncnc(Nc4ccc(N5CCC[C@@H](O)C5)cc4)n3)CC2)nc1` [Compound 224], the figure is below 1 nM.
On to `CC1(O)CCCN(c2ccc(Nc3ncnc(N4CCN(c5ncc(Cc6ccccc6)cn5)CC4)n3)cc2)C1` (stereo not drawn) [Compound 225], for which the IC50 was 1.01 to 10 nM.
On the same count and under the same terms, the same measure for `C[C@@]1(O)CCCN(c2ccc(Nc3ncnc(N4CCN(c5ncc(Cc6ccccc6)cn5)CC4)n3)cc2)C1` [Compound 227]: 1.01 to 10 nM; for `Cc1cc(N2CCNCC2)ccc1Nc1ncnc(N2CCN(c3ncc(Cc4ccccc4)c(N)n3)CC2)n1` [Compound 228]: 1.01 to 10 nM.
Same read-out and setting: the same measure for `Nc1nc(N2CCN(c3ncnc(Nc4ccc5c(c4)CN(CCO)CC5)n3)CC2)ncc1Cc1ccccc1` [Compound 229]: below 1 nM; for `COc1cc(N2CCNCC2)ccc1Nc1ncnc(N2CCN(c3ncc(Cc4ccccc4)cn3)CC2)n1` [Compound 230]: 1.01 to 10 nM; for `Nc1nc(N2CCN(c3ncnc(Nc4ccc(N5CCC[C@@H](O)C5)cc4)n3)CC2)ncc1Cc1ccccc1` [Compound 231]: below 1 nM.
Turning to `O[C@@H]1CCN(c2ccc(Nc3ncnc(N4CCN(c5ncc(Cc6ccccc6)cn5)CC4)n3)cc2)C[C@@H]1O` [Compound 232], the IC50 is below 1 nM.
`c1ccc(C2(c3cnc(N4CCN(c5ncnc(Nc6cnn(C[C@@H]7CNCCO7)c6)n5)CC4)nc3)CC2)cc1` [Compound 233]: the IC50 lay in the range of 1.01 to 10 nM.
On the same count and under the same terms, as for `C[C@@](O)(c1ccccc1)c1cnc(N2CCN(c3ncnc(Nc4ccc(N5CCOCC5)cc4)n3)CC2)nc1` [Compound 234], the figure is 1.01 to 10 nM; as for `C[C@](O)(c1ccccc1)c1cnc(N2CCN(c3ncnc(Nc4ccc(N5CCOCC5)cc4)n3)CC2)nc1` [Compound 235], below 1 nM; as for `OC1(c2ccc(Nc3ncnc(N4CCN(c5ncc(Cc6ccccc6)cn5)CC4)n3)cc2)CCCNC1` (stereo not drawn) [Compound 236], below 1 nM.
On the same count and under the same terms, the same measure for `Fc1cc(O[C@H]2CCCNC2)ccc1Nc1ncnc(N2CCN(c3ncc(Cc4ccccc4)cn3)CC2)n1` [Compound 238]: 1.01 to 10 nM; for `O[C@H]1CCCN(c2ccc(Nc3ncnc(N4CCN(c5ncc(Cc6ccc(F)cc6)cn5)CC4)n3)cc2)C1` [Compound 240]: 1.01 to 10 nM.
Take `CCN1CCO[C@H](Cn2cc(Nc3ncnc(N4CCN(c5ncc(Cc6ccccc6)cn5)CC4)n3)cn2)C1` [Compound 241]: the IC50 is 1.01 to 10 nM.
For the molecule `Cc1c(Nc2ncnc(N3CCN(c4ncc(Cc5ccccc5)cn4)[C@H](C)C3)n2)cnn1C[C@@H]1CNCCO1` [Compound 242], the IC50 was below 1 nM.

A further assay addresses T3, Kit D816V (HMC1.2 cells, Kit V560G and D816V) (Homo sapiens, UniProt P10721, D816V/V560G).
T3 construct: endogenous in cells; host or cells: HMC1.2 cells
Nature of the assay: HMC1.2 autophosphorylation assay (AlphaLISA, phospho-Y719 c-Kit). It counts as cell-based. Particulars: Kit autophosphorylation at tyrosine 719, 90 minutes, read-out: Cellular Activity. The method, boiled down: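 AlphaScreen signal comes from lysed HMC1.2 cells incubated with phospho-Y719 and total c-Kit antibodies (15 nM final), acceptor beads and then streptavidin donor beads, 2 h each at room temperature. Beforehand, cells deprived of serum overnight received compound for 90 min as a 10-point series, 25 uM–95.4 pM, 0.25% DMSO.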
Consider `C[C@H](c1ccccc1)c1cnc(N2CCN(c3ncnc(Nc4ccc(N5CCC[C@@H](O)C5)cc4)n3)CC2)nc1` [Compound 223], for which the IC50 lay in the range of 10 to 100 nM.
The same measure, in the same setting: the same measure for `C[C@@H](c1ccccc1)c1cnc(N2CCN(c3ncnc(Nc4ccc(N5CCC[C@@H](O)C5)cc4)n3)CC2)nc1` [Compound 224]: 10 to 100 nM; for `CC1(O)CCCN(c2ccc(Nc3ncnc(N4CCN(c5ncc(Cc6ccccc6)cn5)CC4)n3)cc2)C1` (stereo not drawn) [Compound 225]: 10 to 100 nM; for `C[C@@]1(O)CCCN(c2ccc(Nc3ncnc(N4CCN(c5ncc(Cc6ccccc6)cn5)CC4)n3)cc2)C1` [Compound 227]: 10 to 100 nM.
Still for that read-out and setting: as for `Cc1cc(N2CCNCC2)ccc1Nc1ncnc(N2CCN(c3ncc(Cc4ccccc4)c(N)n3)CC2)n1` [Compound 228], the figure is 100 to 1000 nM; as for `Nc1nc(N2CCN(c3ncnc(Nc4ccc5c(c4)CN(CCO)CC5)n3)CC2)ncc1Cc1ccccc1` [Compound 229], below 10 nM.
Same read-out and setting: the same measure for `COc1cc(N2CCNCC2)ccc1Nc1ncnc(N2CCN(c3ncc(Cc4ccccc4)cn3)CC2)n1` [Compound 230]: 1000 to 10000 nM.
For `Nc1nc(N2CCN(c3ncnc(Nc4ccc(N5CCC[C@@H](O)C5)cc4)n3)CC2)ncc1Cc1ccccc1` [Compound 231], the IC50 was 10 to 100 nM.
On to `O[C@@H]1CCN(c2ccc(Nc3ncnc(N4CCN(c5ncc(Cc6ccccc6)cn5)CC4)n3)cc2)C[C@@H]1O` [Compound 232], for which the IC50 was in the range of 10 to 100 nM.
The same measure, in the same setting: the same measure for `c1ccc(C2(c3cnc(N4CCN(c5ncnc(Nc6cnn(C[C@@H]7CNCCO7)c6)n5)CC4)nc3)CC2)cc1` [Compound 233]: 10 to 100 nM.
On the same count and under the same terms, as for `C[C@@](O)(c1ccccc1)c1cnc(N2CCN(c3ncnc(Nc4ccc(N5CCOCC5)cc4)n3)CC2)nc1` [Compound 234], the figure is 10 to 100 nM; as for `C[C@](O)(c1ccccc1)c1cnc(N2CCN(c3ncnc(Nc4ccc(N5CCOCC5)cc4)n3)CC2)nc1` [Compound 235], below 10 nM; as for `OC1(c2ccc(Nc3ncnc(N4CCN(c5ncc(Cc6ccccc6)cn5)CC4)n3)cc2)CCCNC1` (stereo not drawn) [Compound 236], below 10 nM.
The same measure, in the same setting: as for `Fc1cc(O[C@H]2CCCNC2)ccc1Nc1ncnc(N2CCN(c3ncc(Cc4ccccc4)cn3)CC2)n1` [Compound 238], the figure is 100 to 1000 nM.
With `O[C@H]1CCCN(c2ccc(Nc3ncnc(N4CCN(c5ncc(Cc6ccc(F)cc6)cn5)CC4)n3)cc2)C1` [Compound 240], the IC50 was below 10 nM.
As to `CCN1CCO[C@H](Cn2cc(Nc3ncnc(N4CCN(c5ncc(Cc6ccccc6)cn5)CC4)n3)cn2)C1` [Compound 241], the IC50 was in the range of 10 to 100 nM.
Same read-out and setting: the same measure for `Cc1c(Nc2ncnc(N3CCN(c4ncc(Cc5ccccc5)cn4)[C@H](C)C3)n2)cnn1C[C@@H]1CNCCO1` [Compound 242]: 10 to 100 nM.
